In patent US9089568B2, “Method of using compatible solutes containing ectoine and/or hydroxyectoine” (Bitop AG, priority 2005, dated 2015):

How the values were obtained:
[1] = system: chronically inflammable intestinal disease; assay: mouse model for Crohn's disease, oral compatible solutes; type: in vivo; settings: oral ingestion
Source text: Moreover, immunological investigations have shown that the TH-2 TH-1 approach typically adopted for the chronically inflammable intestinal disease may to some extent be circumvented by “compatible solutes”. However, the positive effect of “compatible solutes” is not only limited to an alleviation of the symptoms of chronically inflammable intestinal diseases but in addition is characterized by a pronounced preventive potential. […] It is to be assumed that such a preventive effect but also the therapeutic effect is primarily attributable to the anti-inflammatory properties of “compatible solutes” which on the one hand are aimed at the intestinal epithelial cell but also at the helper T lymphocytes deemed to be the cause of the pathogenesis.

amyloid plaques = assay: amyloid plaque formation in mice after oral application; type: in vivo
Source text: Unexpectedly, it has now been ascertained from investigations with mice is involving the oral application of compatible solutes ectoine, hydroxyectoine and firoin A that this enabled the formation of amyloid plaques to be reduced. Likewise, through the administration of compatible solutes the occurrence of neuropathologic effects could be reduced. […] It is to be assumed that such a preventive effect but nevertheless the therapeutic effect as well is primarily attributable to the amyloid-inhibiting properties of “compatible solutes”.

amyloid fibrils = settings: in vitro; Arora et al. (2004); cited from earlier work

CC1=NCCC(C(=O)O)N1 (centres unmarked) [ectoine, 2-methyl-4-carboxy-3,4,5,6-tetrahydropyrimidine]
course of chronically inflammable intestinal diseases [1]: favorably influenced
formation of amyloid plaques (amyloid plaques): reduced
formation of protein deposits, so-called amyloid fibrils (amyloid fibrils): inhibit

NC(=O)[C@H](CO)O[C@@H]1O[C@H](CO)[C@@H](O)[C@H](O)[C@@H]1O [firoin A, mannosylglyceramide]
formation of amyloid plaques (amyloid plaques): reduced

CC1=NCC(O)C(C(=O)O)N1 (centres unmarked) [hydroxyectoine, 2-methyl-4-carboxy-5-hydroxy-3,4,5,6-tetrahydropyrimidine]
formation of amyloid plaques (amyloid plaques): reduced
